Counter-ions that a name gives are not always drawn.

These results are taken from patent EP2246329A1, “4(1H)-pyridinone derivatives and their use as antimalaria agents” (Glaxo Group Limited, priority 2009, dated 2010).

One experiment relates to Plasmodium falciparum. Briefly: In vitro anti-malarial activity against Plasmodium falciparum, IC50 assay / [3H]-Hypoxanthine incorporation assay. Type of experiment: cell-based. Conditions: Erythrocyte; Plasmodium falciparum strains in parasitized red blood cells, [3H]-hypoxanthine incorporation, 48 hours at 37°C. On the procedure: The compounds of this invention may be tested in one of several biological assays to determine the concentration of compound which is required to have a given pharmacological effect. In vitro anti-malarial activity against Plasmodium falciparum. IC50 assay / [^3H]-Hypoxanthine assay
The culture medium comprised RPMI 1640 with 25mM HEPES, sodium bicarbonate and glutamine (GIBCO™ cat. ref.: 52400), supplemented with 10% of pooled human sera AB (Irvine Scientific, cat. ref.: 5009) and HT supplement (0.15 mM hypoxanthine and 24 µM thymidine), (GIBCO™ cat. ref.: 41065). Human sera were decomplemented 30 min. at 56°C, aliquoted and stored frozen at -20°C until use in this culture medium.
This culture medium ("complete medium") was usually prepared fresh just before use and pre-warmed to 37°C.
Red blood cells O+ stock suspensions were prepared from whole blood bags coming from incomplete blood donation, provided by the Spanish Red Cross (<25 days after sampling). This "whole blood" was aliquoted and stored at 4°C.
To prepare red blood cells for the assay, the whole blood was centrifuged and washed 3 times with RPMI without serum. The upper phase, containing white blood cells was removed. The washed red blood cells were kept as a 50 % suspension in complete medium. The prepared cells were stored at 4°C and were employed in the assay at any time up to 4 days after preparation.
Test compounds were dissolved at 2 mg/ml in 100% DMSO on the day of the assay. If necessary, complete dissolution was achieved by gentle heating (the mixture was heated at a temperature <37°C) and sonication (sonication bath).
For IC50 determinations, 10 serial 2-fold dilutions were prepared in complete medium in the presence of a constant amount of DMSO. Any obvious signs of insolubility of the stock solutions in 100% DMSO or precipitation when these solutions were diluted in assay media, were recorded.
Plasmodium falciparum strains were maintained in complete medium at an hematocrit of 5% in continuous culture using a method adapted from that published by Trager and Jensen(1) and Traeger(2).
The parasitemia was calculated by counting the percentage of parasitized erythrocytes by optical microscopy. Thin films of blood were made every day from each culture flask, fixed with methanol and stained for 10 min. in Giemsa (Merck, cat. ref.: 1.09204) at 10 % in buffered water pH 7.2. The glass slides were observed and counted with an optical microscope (Nikon, Eclipse E200) equipped with a 100 X immersion oil objective.
The culture was maintained at an hematocrit of 5%, with a daily change of medium and was diluted when parasitemia had reached about 5%.
[^3H] Hypoxanthine incorporation assay was conducted using a method adapted from Desjardins et al. (3). The assays were performed in 96 wells flat bottom microplates. • 1. Serial dilutions of the test compounds (50µl of a 5X solution / well) were deposited in duplicate. Compounds of the invention were tested in this assay. Chloroquine and Atovaquone were used as control compounds for each assay. • 2. […] [^3H]-Hypoxanthine (Amersham Biosciences, cat. ref.: TRK74) was added extemporaneously to the inoculum suspension at a concentration of 1 µCi/ml (equating to […]). 200 µl of the resulting suspension was distributed into each well (other than the control well H12 described below) leading to a final volume of 250 µl per well, at 2% of hematocrit and 0.5 % of parasitemia / well. • 4. […]
`Cc1[nH]c(C)c(-c2ccc(C#CCN3CCC(c4ccc(OC(F)(F)F)cc4)CC3)cc2)c(=O)c1Cl.Cl` [Example 11, 3-Chloro-2,6-dimethyl-5-{4-[3-(4-{4-[(trifluoromethyl)oxy]phenyl}-1-piperidinyl)-1-propyn-1-yl]phenyl}-4(1H)-pyridinone hydrochloride] yielded an IC50 of under 0.125 µg/mL. Same read-out and setting: the result for `CC(=O)Oc1c(Cl)c(C)nc(C)c1-c1ccc(-c2ccc(CN3CCC(c4ccc(OC(F)(F)F)cc4)CC3)cc2)cc1.Cl` [Example 56, 3-Chloro-2,6-dimethyl-5-{4'-[(4-{4-[(trifluoromethyl)oxy]phenyl}-1-piperidinyl)methyl]-4-biphenylyl}-4-pyridinyl acetate hydrochloride] reads under 0.125 µg/mL. Still for that read-out and setting: the result for `Cc1[nH]c(C)c(-c2ccc(C#CCN(C)Cc3ccsc3)cc2)c(=O)c1Cl.Cl` [Example 45, 3-Chloro-2,6-dimethyl-5-(4-{3-[methyl(3-thienylmethyl)amino]-1-propyn-1-yl}phenyl)-4(1H)-pyridinone hydrochloride] reads under 0.125 µg/mL. In turn, `Cc1[nH]c(C)c(-c2ccc(-c3cccc(CN(C)Cc4ccc(OC(F)(F)F)cc4)c3)cc2)c(=O)c1Cl.Cl` [Example 34, 3-Chloro-2,6-dimethyl-5-(3'-{[methyl({4-[(trifluoromethyl)oxy]phenyl}methyl)amino]methyl}-4-biphenylyl)-4(1H)-pyridinone hydrochloride] gave an IC50 of under 0.125 µg/mL.

`Cc1[nH]c(C)c(-c2ccc(-c3ccc(CN4CCC(c5ccc(OC(F)(F)F)cc5)CC4)cc3)cc2)c(=O)c1Cl.Cl` [Example 33, 3-Chloro-2,6-dimethyl-5-{4'-[(4-{4-[(trifluoromethyl)oxy]phenyl}-1-piperidinyl)methyl]-4-biphenylyl}-4(1H)-pyridinone hydrochloride] returned an IC50 of under 0.125 µg/mL.

The compound `Cc1ccc(CN(C)CC#Cc2ccc(-c3c(C)[nH]c(C)c(Cl)c3=O)cc2)s1.Cl` [Example 42, 3-Chloro-2,6-dimethyl-5-[4-(3-{methyl[(5-methyl-2-thienyl)methyl]amino}-1-propyn-1-yl)phenyl]-4(1H)-pyridinone hydrochloride] registered an IC50 of under 0.125 µg/mL. Still for that read-out and setting: the result for `Cc1[nH]c(C)c(-c2ccc(C#CCN(C)Cc3cccn3C)cc2)c(=O)c1Cl.Cl` [Example 44, 3-Chloro-2,6-dimethyl-5-[4-(3-{methyl[(1-methyl-1H-pyrrol-2-yl)methyl]amino}-1-propyn-1-yl)phenyl]-4(1H)-pyridinone hydrochloride] reads under 0.125 µg/mL; that for `Cc1[nH]c(C)c(-c2ccc(C#CCN(C)Cc3ccc(F)cc3)cc2)c(=O)c1Cl` [Example 50, 3-Chloro-5-(4-{3-[[(4-fluorophenyl)methyl](methyl)amino]-1-propyn-1-yl}phenyl)-2,6-dimethyl-4(1H)-pyridinone], under 0.125 µg/mL; that for `Cc1[nH]c(C)c(-c2ccc(OCCN3CCC(C(F)(F)F)CC3)nc2)c(=O)c1Cl.Cl` [Example 68, 5-chloro-2,6-dimethyl-6'-({2-[4-(trifluoromethyl)-1-piperidinyl]ethyl}oxy)-3,3'-bipyridin-4(1H)-one hydrochloride], 0.21 µg/mL. On to `Cc1[nH]c(C)c(-c2cccc(C#CCN3CCC(c4ccc(OC(F)(F)F)cc4)CC3)c2)c(=O)c1Cl.O=C(O)C(F)(F)F` [Example 30, 3-Chloro-2,6-dimethyl-5-{3-[3-(4-{4-[(trifluoromethyl)oxy]phenyl}-1-piperidinyl)-1-propyn-1-yl]phenyl}-4(1H)-pyridinone trifluoroacetate], for which the IC50 was under 0.125 µg/mL. Still for that read-out and setting: with `Cc1[nH]c(C)c(-c2ccc(CN(C)Cc3ccc(OC(F)(F)F)cc3)cc2)c(=O)c1Cl.Cl` [Example 23, 3-Chloro-2,6-dimethyl-5-(4-{[methyl({4-[(trifluoromethyl)oxy]phenyl}methyl)amino]-methyl}phenyl)-4(1H)-pyridinone hydrochloride] the figure was under 0.125 µg/mL; with `CCCN(CC#Cc1ccc(-c2c(C)[nH]c(C)c(Cl)c2=O)cc1)Cc1ccc(OC(F)(F)F)cc1.O=C(O)C(F)(F)F` [Example 6, 3-Chloro-2,6-dimethyl-5-(4-{3-[propyl({4-[(trifluoromethyl)oxy]phenyl}methyl)amino]-1-propyn-1-yl}phenyl)-4(1H)-pyridinone trifluoroacetate], under 0.125 µg/mL. The compound `Cc1[nH]c(C)c(-c2ccc(C#CCN(C)Cc3ccc(OC(F)(F)F)cc3)cc2)c(=O)c1Cl` [Example 1, 3-Chloro-2,6-dimethyl-5-(4-{3-[methyl({4-[(trifluoromethyl)oxy]phenyl}methyl)amino]-1-propyn-1-yl}phenyl)-4(1H)-pyridinone] yielded an IC50 of under 0.125 µg/mL. On the same count and under the same terms, the result for `Cc1[nH]c(C)c(-c2ccc(CN3CCC(c4ccc(OC(F)(F)F)cc4)CC3)cc2)c(=O)c1Cl.Cl` [Example 24, 3-Chloro-2,6-dimethyl-5-{4-[(4-{4-[(trifluoromethyl)oxy]phenyl}-1-piperidinyl)methyl]-phenyl}-4(1H)-pyridinone hydrochloride] reads under 0.125 µg/mL; that for `Cc1[nH]c(CO)c(-c2ccc(-c3ccc(CN4CCC(c5ccc(OC(F)(F)F)cc5)CC4)cc3)cc2)c(=O)c1Cl.Cl` [Example 62, 3-chloro-6-(hydroxymethyl)-2-methyl-5-{4'-[(4-{4-[(trifluoromethyl)oxy]phenyl}-1-piperidinyl)methyl]-4-biphenylyl}-4(1H)-pyridinone hydrochloride], under 0.125 µg/mL; that for `Cc1[nH]c(C)c(-c2ccc(C#CCNCc3ccc(OC(F)(F)F)cc3)cc2)c(=O)c1Cl` [Example 8, 3-Chloro-2,6-dimethyl-5-(4-{3-[({4-[(trifluoromethyl)oxy]phenyl}methyl)amino]-1-propyn-1-yl}phenyl)-4(1H)-pyridinone], under 0.125 µg/mL. Compound `Cc1[nH]c(C)c(-c2ccc(C(F)(F)CN3CCC(C(F)(F)F)CC3)nc2)c(=O)c1Cl` [Example 67, 5-chloro-6'-{1,1-difluoro-2-[4-(trifluoromethyl)-1-piperidinyl]ethyl}-2,6-dimethyl-3,3'-bipyridin-4(1H)-one] yielded an IC50 of under 0.125 µg/mL.

`Cc1[nH]c(C)c(-c2ccc(C#CCN3CCCCC3c3ccccc3)cc2)c(=O)c1Cl.Cl` (centres unmarked) [Example 13, 3-Chloro-2,6-dimethyl-5-{4-[3-(2-phenyl-1-piperidinyl)-1-propyn-1-yl]phenyl}-4(1H)-pyridinone hydrochloride]: the IC50 was under 0.125 µg/mL. The same measure, in the same setting: the result for `Cc1[nH]c(C)c(-c2ccc(C#CCN(Cc3ccccc3)Cc3ccccc3)cc2)c(=O)c1Cl.Cl` [Example 12, 3-(4-{3-[Bis(phenylmethyl)amino]-1-propyn-1-yl}phenyl)-5-chloro-2,6-dimethyl-4(1H)-pyridinone hydrochloride] reads under 0.125 µg/mL; that for `Cc1[nH]c(C)c(-c2ccc(C#CCN3CCc4cc(C(F)(F)F)ccc4C3)cc2)c(=O)c1Cl.Cl` [Example 14, 3-Chloro-2,6-dimethyl-5-(4-(3-[6-(trifluoromethyl)-3,4-dihydro-2(1H)-isoquinolinyl]-1-propyn-1-yl}phenyl)-4(1H)-pyridinone hydrochloride], under 0.125 µg/mL. Compound `Cc1[nH]c(C)c(-c2ccc(-c3ccc(CN4CCC(C(F)(F)F)CC4)cc3)cc2)c(=O)c1Cl.Cl` [Example 57, 3-chloro-2,6-dimethyl-5-(4'-{[4-(trifluoromethyl) -1-piperidinyl]methyl}-4-biphenylyl)-4(1H)-pyridinone hydrochloride] returned an IC50 of under 0.125 µg/mL. With `Cc1[nH]c(C)c(-c2ccc(C#CCN(C)Cc3nccs3)cc2)c(=O)c1Cl.Cl` [Example 43, 3-Chloro-2,6-dimethyl-5-(4-{3-[methyl(1,3-thiazol-2-ylmethyl)amino]-1-propyn-1-yl}phenyl)-4(1H)-pyridinone hydrochloride], the IC50 is under 0.125 µg/mL.

Still in this experiment, the particulars now being: Plasmodium falciparum, Erythrocyte.
As for `Cc1[nH]c(C)c(-c2ccc(C#CCN(Cc3ccc(OC(F)(F)F)cc3)CC3CCCC3)cc2)c(=O)c1Cl` [Example 38, 3-Chloro-5-(4-{3-[(cyclopentylmethyl)({4-[(trifluoromethyl)oxy]phenyl}methyl)aminol-1-propyn-1-yl}phenyl)-2,6-dimethy)-4(1H)-pyridinone hydrochloride], the IC50 was under 0.125 µg/mL.

For orientation: IC50 means the concentration at which inhibition is half-maximal. A low value points to inhibition by little substance.
